Results reported in PubChem BioAssay AID330 (DTP/NCI, 2004).
Values joined by “and” are separate entries in the source; they are usually repeats but may differ in a detail not shown here. Equal entries are not always repeated. Inconclusive results and toxic doses are left out.

Tested on: P388 leukemia ip, CD2F1 mice, survival T/C
Test: NCI In Vivo Anticancer Drug Screen. Data for tumor model P388 Leukemia (intraperitoneal) in CD2F1 (CDF1) mice
Details: endpoint: median survival time, higher = longer survival
In short: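 Mice carrying the transplanted tumor received test compound or vehicle. Survival was recorded in each group, and the value is the treated-group measurement divided by that of the vehicle-treated control group.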

[1] = dose: 50.0 mg/kg/injection, schedule: Q01DX009 (ip), vehicle: saline with Tween-80
[2] = dose: 100.0 mg/kg/injection, schedule: Q01DX009 (ip), vehicle: saline with Tween-80
[3] = dose: 200.0 mg/kg/injection, schedule: Q01DX009 (ip), vehicle: saline with Tween-80
[4] = dose: 50.0 mg/kg/injection, schedule: Q01DX005 (ip), vehicle: Klucel (hydroxypropylcellulose) (HPC)
[5] = dose: 100.0 mg/kg/injection, schedule: Q01DX005 (ip), vehicle: Klucel (hydroxypropylcellulose) (HPC)
[6] = dose: 200.0 mg/kg/injection, schedule: Q01DX005 (ip), vehicle: Klucel (hydroxypropylcellulose) (HPC)
[7] = dose: 100.0 mg/kg/injection, schedule: Q04DX002 (ip), vehicle: saline with Tween-80
[8] = dose: 200.0 mg/kg/injection, schedule: Q04DX002 (ip), vehicle: saline with Tween-80
[9] = dose: 400.0 mg/kg/injection, schedule: Q04DX002 (ip), vehicle: saline with Tween-80
[10] = dose: 50.0 mg/kg/injection, schedule: Q01DX005 (ip), vehicle: saline with Tween-80
[11] = dose: 100.0 mg/kg/injection, schedule: Q01DX005 (ip), vehicle: saline with Tween-80
[12] = dose: 12.5 mg/kg/injection, schedule: Q01DX005 (ip), vehicle: Klucel (hydroxypropylcellulose) (HPC)
[13] = dose: 25.0 mg/kg/injection, schedule: Q01DX005 (ip), vehicle: Klucel (hydroxypropylcellulose) (HPC)

Q: With `CCOC(=O)c1ccc(NC(=O)Nc2nc3cc(C)c(C)cc3s2)cc1` as the compound, how does the T/C [1] read?
A: 99 % of control

Q: What about the T/C [2] of the same compound?
A: 95 % of control

Q: What about the T/C [3] of the same compound?
A: 93 % of control

Q: Which T/C [4] does the source give for `O=C(CCSCCC(=O)N/N=C/C(O)C(O)C(O)CO)N/N=C/C(O)C(O)C(O)CO` (stereo unspecified) here?
A: 103 % of control and 97 % of control

Q: And the T/C [5]?
A: 99 % of control and 94 % of control

Q: And the T/C [6]?
A: 99 % of control and 95 % of control

Q: With `Cc1ccc(S(=O)(=O)S(=O)(=O)c2ccc(C)cc2)cc1` as the compound, how does the T/C [7] read?
A: 96 % of control

Q: And the T/C [8]?
A: 99 % of control

Q: What about the T/C [9] of the same compound?
A: 104 % of control

Q: `O=C1C(Cl)=C(n2c3ccccc3c3ccccc32)C(=O)c2ccccc21` was tested. Which T/C (dose: 6.25 mg/kg/injection, schedule: Q01DX005 (ip), vehicle: saline with Tween-80) did it give?
A: 108 % of control

Q: What about the T/C (dose: 12.5 mg/kg/injection, schedule: Q01DX005 (ip), vehicle: saline with Tween-80) of the same compound?
A: 104 % of control

Q: Which results are given for `CC(CCC(=O)O)(c1ccc(OC(=O)Nc2cccc([N+](=O)[O-])c2)cc1)c1ccc(OC(=O)Nc2cccc([N+](=O)[O-])c2)cc1`?
A: T/C [10]: 98 % of control; T/C [11]: 91 % of control

Q: `c1cnc2c3cnc4sccc4c3nn2c1` was tested. Which T/C [7] did it give?
A: 93 % of control

Q: And the T/C [8]?
A: 88 % of control

Q: What about the T/C [9] of the same compound?
A: 93 % of control

Q: `FC(F)(F)Sc1c(SC(F)(F)F)c(SC(F)(F)F)n(-n2c(SC(F)(F)F)c(SC(F)(F)F)c(SC(F)(F)F)c2SC(F)(F)F)c1SC(F)(F)F` was tested. Which T/C (dose: 15.0 mg/kg/injection, schedule: Q01DX005 (ip), vehicle: Klucel (hydroxypropylcellulose) (HPC)) did it give?
A: 104 % of control

Q: And the T/C (dose: 30.0 mg/kg/injection, schedule: Q01DX005 (ip), vehicle: Klucel (hydroxypropylcellulose) (HPC))?
A: 106 % of control

Q: What about the T/C (dose: 60.0 mg/kg/injection, schedule: Q01DX005 (ip), vehicle: Klucel (hydroxypropylcellulose) (HPC)) of the same compound?
A: 103 % of control and 97 % of control

Q: Which T/C (dose: 100.0 mg/kg/injection, schedule: Q01DX001 (ip), vehicle: Klucel (hydroxypropylcellulose) (HPC)) does the source give for `CC1=C(C)C2C(=O)NC(=O)NC12` (stereo unspecified) here?
A: 100 % of control

Q: And the T/C (dose: 200.0 mg/kg/injection, schedule: Q01DX001 (ip), vehicle: Klucel (hydroxypropylcellulose) (HPC))?
A: 91 % of control

Q: How did the T/C (dose: 0.75 mg/kg/injection, schedule: Q01DX009 (ip), vehicle: other) turn out when `COc1cc2c(c(OC)c1OC)-c1ccc(SC)c(=O)cc1[C@@H](NC1OC(COC(C)=O)C(OC(C)=O)C(OC(C)=O)C1OC(C)=O)CC2` (stereo partly specified) was run?
A: 97 % of control

Q: What about the T/C (dose: 1.5 mg/kg/injection, schedule: Q01DX009 (ip), vehicle: other) of the same compound?
A: 97 % of control

Q: And the T/C (dose: 3.0 mg/kg/injection, schedule: Q01DX009 (ip), vehicle: other)?
A: 102 % of control

Q: And the T/C (dose: 6.0 mg/kg/injection, schedule: Q01DX009 (ip), vehicle: other)?
A: 107 % of control

Q: And the T/C (dose: 12.0 mg/kg/injection, schedule: Q01DX009 (ip), vehicle: other)?
A: 117 % of control

Q: And the T/C (dose: 24.0 mg/kg/injection, schedule: Q01DX009 (ip), vehicle: other)?
A: 120 % of control

Q: And the T/C (dose: 192.0 mg/kg/injection, schedule: Q01DX009 (ip), vehicle: other)?
A: 150 % of control

Q: For `O=C1CSC(=S)N1c1ccc(Cl)cc1`, which T/C (dose: 25.0 mg/kg/injection, schedule: Q01DX009 (ip), vehicle: Klucel (hydroxypropylcellulose) (HPC)) is on record?
A: 96 % of control

Q: What about the T/C (dose: 50.0 mg/kg/injection, schedule: Q01DX009 (ip), vehicle: Klucel (hydroxypropylcellulose) (HPC)) of the same compound?
A: 96 % of control

Q: What about the T/C (dose: 100.0 mg/kg/injection, schedule: Q01DX009 (ip), vehicle: Klucel (hydroxypropylcellulose) (HPC)) of the same compound?
A: 113 % of control

Q: For `CCCCCCN=C(N)N/N=C(\C)c1ccc2c(c1)Cc1ccccc1-2`, which T/C (dose: 12.5 mg/kg/injection, schedule: Q04DX002 (ip), vehicle: saline with Tween-80) is on record?
A: 107 % of control

Q: What about the T/C (dose: 25.0 mg/kg/injection, schedule: Q04DX002 (ip), vehicle: saline with Tween-80) of the same compound?
A: 100 % of control

Q: What about the T/C (dose: 50.0 mg/kg/injection, schedule: Q04DX002 (ip), vehicle: saline with Tween-80) of the same compound?
A: 92 % of control

Q: What about the T/C [7] of the same compound?
A: 116 % of control

Q: For `CC(C)(C)c1cc(OS(=O)(=O)C(F)(F)C(F)(F)C(F)(F)C(F)(F)F)cc(C(C)(C)C)c1`, which T/C [1] is on record?
A: 106 % of control

Q: What about the T/C [2] of the same compound?
A: 108 % of control

Q: And the T/C [3]?
A: 108 % of control

Q: Which results are given for `COc1cc(C2c3cc4c(cc3OC(C)(OC)C2C)OCO4)cc(OC)c1OC` (stereo unspecified)?
A: T/C (dose: 1.8 mg/kg/injection, schedule: Q01DX005 (ip), vehicle: saline): 103 % of control; T/C (dose: 3.75 mg/kg/injection, schedule: Q01DX005 (ip), vehicle: saline): 98 % of control; T/C (dose: 7.5 mg/kg/injection, schedule: Q01DX005 (ip), vehicle: saline): 93 % of control; T/C (dose: 15.0 mg/kg/injection, schedule: Q01DX005 (ip), vehicle: saline): 91 % of control; T/C (dose: 30.0 mg/kg/injection, schedule: Q01DX005 (ip), vehicle: saline): 89 % of control; T/C (dose: 60.0 mg/kg/injection, schedule: Q01DX005 (ip), vehicle: saline): 102 % of control and 86 % of control; T/C (dose: 120.0 mg/kg/injection, schedule: Q01DX005 (ip), vehicle: saline): 86 % of control; T/C (dose: 240.0 mg/kg/injection, schedule: Q01DX005 (ip), vehicle: saline): 92 % of control

Q: Which results are given for `O=C1CC2CCC1(CS(=O)(=O)OCCCCOS(=O)(=O)CC13CCC(CC1=O)C3)C2`?
A: T/C (dose: 60.0 mg/kg/injection, schedule: Q01DX005 (ip), vehicle: saline with Tween-80): 103 % of control; T/C (dose: 120.0 mg/kg/injection, schedule: Q01DX005 (ip), vehicle: saline with Tween-80): 103 % of control; T/C (dose: 240.0 mg/kg/injection, schedule: Q01DX005 (ip), vehicle: saline with Tween-80): 93 % of control

Q: Which T/C [4] does the source give for `COc1cc(C(=O)Nc2cccc(Cl)c2Cl)cc(OC)c1OC` here?
A: 104 % of control

Q: And the T/C [5]?
A: 96 % of control

Q: What about the T/C [6] of the same compound?
A: 92 % of control

Q: Which T/C (dose: 3.13 mg/kg/injection, schedule: Q01DX009 (ip), vehicle: Klucel (hydroxypropylcellulose) (HPC)) does the source give for `ClC(Cl)=[C](Cl)[Hg][C](Cl)=C(Cl)Cl` here?
A: 105 % of control

Q: What about the T/C (dose: 6.25 mg/kg/injection, schedule: Q01DX009 (ip), vehicle: Klucel (hydroxypropylcellulose) (HPC)) of the same compound?
A: 100 % of control

Q: And the T/C (dose: 12.5 mg/kg/injection, schedule: Q01DX009 (ip), vehicle: Klucel (hydroxypropylcellulose) (HPC))?
A: 97 % of control

Q: `c1cc2c3c(ccc2c2c1OCN(C1CCCCC1)C2)OCN(C1CCCCC1)C3` was tested. Which T/C (dose: 3.12 mg/kg/injection, schedule: Q01DX005 (ip), vehicle: Klucel (hydroxypropylcellulose) (HPC)) did it give?
A: 96 % of control

Q: And the T/C (dose: 6.25 mg/kg/injection, schedule: Q01DX005 (ip), vehicle: Klucel (hydroxypropylcellulose) (HPC))?
A: 91 % of control

Q: And the T/C [12]?
A: 90 % of control

Q: And the T/C [6]?
A: 94 % of control

Q: Which T/C (dose: 100.0 mg/kg/injection, schedule: Q04DX002 (ip), vehicle: Klucel (hydroxypropylcellulose) (HPC)) does the source give for `O=C1SC/C(=N\N=c2/scc(-c3ccccc3)n2-c2ccccc2)N1Cc1ccccc1` here?
A: 90 % of control

Q: What about the T/C (dose: 200.0 mg/kg/injection, schedule: Q04DX002 (ip), vehicle: Klucel (hydroxypropylcellulose) (HPC)) of the same compound?
A: 91 % of control

Q: What about the T/C (dose: 400.0 mg/kg/injection, schedule: Q04DX002 (ip), vehicle: Klucel (hydroxypropylcellulose) (HPC)) of the same compound?
A: 88 % of control

Q: How did the T/C (dose: 25.0 mg/kg/injection, schedule: Q01DX009 (ip), vehicle: saline with Tween-80) turn out when `O=[Se]([O][Sn]([O][Se](=O)c1ccccc1)([O][Se](=O)c1ccccc1)[c]1ccccc1)c1ccccc1` (stereo unspecified) was run?
A: 104 % of control and 96 % of control

Q: What about the T/C [1] of the same compound?
A: 100 % of control and 103 % of control and 118 % of control

Q: What about the T/C [2] of the same compound?
A: 111 % of control and 121 % of control and 96 % of control

Q: Which results are given for `NC1=NC(CNC(=O)c2cccc([N+](=O)[O-])c2)N(c2cccc(Cl)c2)C(N)=N1` (stereo unspecified)?
A: T/C (dose: 50.0 mg/kg/injection, schedule: Q01DX005 (ip), vehicle: saline): 100 % of control; T/C (dose: 100.0 mg/kg/injection, schedule: Q01DX005 (ip), vehicle: saline): 107 % of control; T/C (dose: 200.0 mg/kg/injection, schedule: Q01DX005 (ip), vehicle: saline): 109 % of control

Q: For `CC(C)=CCc1c(C)cc2cc3c(c(O)c2c1O)C(O)=CC(=O)C3(CC=C(C)C)C/C=C(\C)CO` (stereo unspecified), which T/C [13] is on record?
A: 103 % of control

Q: What about the T/C [4] of the same compound?
A: 93 % of control

Q: What about the T/C [5] of the same compound?
A: 97 % of control

Q: Which T/C [12] does the source give for `Nc1nnc(SCCCCCCCCCCCCSc2nnc(N)s2)s1` here?
A: 91 % of control

Q: And the T/C [13]?
A: 90 % of control

Q: What about the T/C [4] of the same compound?
A: 89 % of control

Q: What about the T/C [6] of the same compound?
A: 86 % of control

Q: `CC(OCc1ccccc1)C(NC(=O)OC(C)(C)C)C(=O)ON1C(=O)CCC1=O` (stereo unspecified) was tested. Which T/C [4] did it give?
A: 109 % of control

Q: What about the T/C [5] of the same compound?
A: 105 % of control

Q: And the T/C [6]?
A: 96 % of control

Q: With `COc1cccc(C(=O)CC(c2ccccc2)C(C)(C)[N+](=O)[O-])c1` (stereo unspecified) as the compound, how does the T/C (dose: 25.0 mg/kg/injection, schedule: Q01DX005 (ip), vehicle: saline with Tween-80) read?
A: 105 % of control

Q: And the T/C [10]?
A: 99 % of control

Q: And the T/C [11]?
A: 99 % of control
